Key:
rgRSV224 virus = test: microbe, parasite or virus in culture; type: cell-based, respiratory syncytial virus (RSV); settings: human respiratory syncytial virus, HeLa, 72 h, read-out: RSV HELA pEC50, rgRSV224 virus (MOI=1), HeLa cells, GFP expression three days post-virus exposure (converted)
HeLa cells = test: Cytotoxicity in HeLa cells, ATP content (ATPlite kit); settings: three days incubation, CC50 = 50% concentration for cytotoxicity
Protocol: Black 384-well clear-bottom microtiter plates (Corning, Amsterdam, The Netherlands) were filled via acoustic drop ejection using the echo liquid handler (Labcyte, Sunnyvale, Calif.). 200 nL of compound stock solutions (100% DMSO) were transferred to the assay plates. 9 serial 4-fold dilutions of compound were made, creating per quadrant the same compound concentration. The assay was initiated by adding 10 μL of culture medium to each well (RPMI medium without phenol red, 10% FBS-heat inactivated, 0.04% gentamycin (50 mg/mL). All addition steps are done by using a multidrop dispenser (Thermo Scientific, Erembodegem, Belgium). Next, rgRSV224 virus (MOI=1) diluted in culture medium was added to the plates. rgRSV224 virus is an engineered virus that includes an additional GFP gene (Hallak L K, Spillmann D, Collins P L, Peeples M E. Glycosaminoglycan sulfation requirements for respiratory syncytial virus infection; Journal of virology (2000), 74(22), 10508-13) and was in-licensed from the NIH (Bethesda, Md., USA). Finally, 20 μL of a HeLa cell suspension (3,000 cells/well) were plated. Medium, virus- and mock-infected controls were included in each test. The wells contain 0.05% DMSO per volume. Cells were incubated at 37° C. in a 5% CO2 atmosphere. Three days post-virus exposure, viral replication was quantified by measuring GFP expression in the cells by an in house developed MSM laser microscope (Tibotec, Beerse, Belgium). The EC50 was defined as the 50% inhibitory concentration for GFP expression. In parallel, compounds were incubated for three days in a set of white 384-well microtiter plates (Corning) and the cytotoxicity of compounds in HeLa cells was determined by measuring the ATP content of the cells using the ATPlite kit (Perkin Elmer, Zaventem, Belgium) according to the manufacturer's instructions. The CC50 was defined as the 50% concentration for cytotoxicity.

Structure (SMILES) | EC50 (rgRSV224 virus) [nM] | SI TOX HELA (HeLa cells)
Cc1cn2nc(C3CCCCN3c3ncnc4cccc(C)c34)cc2nc1N1CC(O)C1 (stereo not drawn) [P23, 1-(6-methyl-2-(1-(5-methylquinazolin-4-yl)piperidin-2-yl)pyrazolo-[1,5-a]pyrimidin-5-yl)azetidin-3-ol] | 15.8 | <4.6
Clc1cccc2ncnc(N3CCCCC3c3cc4nc(N5CCC5)cc(N5CCOCC5)n4n3)c12 (stereo not drawn) [P35, 4-(5-(azetidin-1-yl)-2-(1-(5-chloroquinazolin-4-yl)piperidin-2-yl)-pyrazolo[1,5-a]pyrimidin-7-yl)morpholine] | 63.1 | 4.4
Cc1cccc2nc(C(=O)NS(C)(=O)=O)nc(N3CCCCC3c3cc4nc(N5CCC5)cc(N5CCOCC5)n4n3)c12 (stereo not drawn) [P69, 4-(2-(5-(azetidin-1-yl)-7-morpholinopyrazolo[1,5-a]pyrimidin-2-yl)-piperidin-1-yl)-5-methyl-N-(methylsulfonyl)quinazoline-2-carboxamide] | 316 | <4
Cc1cccc2ncnc(N3CCCCC3c3cc4nc(N5CCC5)cc(N5CCN(S(C)(=O)=O)CC5)n4n3)c12 (stereo not drawn) [P55, 4-(2-(5-(azetidin-1-yl)-7-(4-(methylsulfonyl)piperazin-1-yl)pyrazolo-[1,5-a]pyrimidin-2-yl)piperidin-1-yl)-5-methylquinazoline] | 15.8 | 4.3
Cc1ccc2nc(Cl)nc(N3CCCCC3c3cc4nc(N5CCC5)cc(N5CCOCC5)n4n3)c2c1 (stereo not drawn) [P5, 4-(5-(azetidin-1-yl)-2-(1-(2-chloro-6-methylquinazolin-4-yl)piperidin-2-yl)pyrazolo[1,5-a]pyrimidin-7-yl)morpholine] | 251 | <5
Clc1ccc2ncnc(N3CCCCC3c3cc4nc(N5CCC5)cc(N5CCOCC5)n4n3)c2c1 (stereo not drawn) [P1, 4-(5-(azetidin-1-yl)-2-(1-(6-chloroquinazolin-4-yl)piperidin-2-yl)-pyrazolo[1,5-a]pyrimidin-7-yl)morpholine] | 794 | 4.4
CCOc1nc(N2CCCCC2c2cc3nc(N4CCC4)cc(N4CCOCC4)n3n2)c2cccnc2n1 (stereo not drawn) [P16, 4-(5-(azetidin-1-yl)-2-(1-(2-ethoxypyrido[2,3-d]pyrimidin-4-yl)-piperidin-2-yl)pyrazolo[1,5-a]pyrimidin-7-yl)morpholine] | 79.4 | 4.3
CN(C)S(=O)(=O)NC(=O)c1nc(N2CCCCC2c2cc3nc(N4CCC4)cc(N4CCOCC4)n3n2)c2ccccc2n1 (stereo not drawn) [P36, 4-(2-(5-(azetidin-1-yl)-7-morpholinopyrazolo[1,5-a]pyrimidin-2-yl)-piperidin-1-yl)-N—(N,N-dimethylsulfamoyl)quinazoline-2-carboxamide] | 501 | <4
CSc1nc(N2CCCCC2c2cc3nc(N4CCC4)cc(N4CCOCC4)n3n2)c2cc(C)ccc2n1 (stereo not drawn) [P57, 4-(5-(azetidin-1-yl)-2-(1-(6-methyl-2-(methylthio)quinazolin-4-yl)-piperidin-2-yl)pyrazolo[1,5-a]pyrimidin-7-yl)morpholine] | 631 | 4.5
Cc1cccc2ncnc(N3CCCCC3c3cc4nc(N5CCC5)cc(N5CCN(C(=O)OC(C)(C)C)CC5)n4n3)c12 (stereo not drawn) [P52, tert-butyl4-(5-(azetidin-1-yl)-2-(1-(5-methylquinazolin-4-yl)piperidin-2-yl)pyrazolo[1,5-a]pyrimidin-7-yl)piperazine-1-carboxylate] | 79.4 | 4.7
Cc1nc(N2CCCCC2c2cc3nc(N4CC(O)C4)c(C)cn3n2)c2c(C)cccc2n1 (stereo not drawn) [P37, 1-(2-(1-(2,5-dimethylquinazolin-4-yl)piperidin-2-yl)-6-methyl-pyrazolo[1,5-a]pyrimidin-5-yl)azetidin-3-ol] | 316 | 4.3
Cc1cn2nc(C3CCCCN3c3nc(Cl)nc4cccc(C)c34)cc2nc1N1CC(O)C1 (stereo not drawn) [P40, 1-(2-(1-(2-chloro-5-methylquinazolin-4-yl)piperidin-2-yl)-6-methylpyrazolo[1,5-a]pyrimidin-5-yl)azetidin-3-ol] | 158 | 4.7
CCOc1cccc2ncnc(N3CCCCC3c3cc4nc(N5CCC5)cc(N5CCOCC5)n4n3)c12 (stereo not drawn) [P61, 4-(5-(azetidin-1-yl)-2-(1-(5-ethoxyquinazolin-4-yl)piperidin-2-yl)-pyrazolo[1,5-a]pyrimidin-7-yl)morpholine] | 31.6 | <4
Cc1cccc2nc(C(=O)NS(=O)(=O)C3CC3)nc(N3CCCCC3c3cc4nc(N5CCC5)cc(N5CCOCC5)n4n3)c12 (stereo not drawn) [P71, 4-(2-(5-(azetidin-1-yl)-7-morpholinopyrazolo[1,5-a]pyrimidin-2-yl)-piperidin-1-yl)-N-(cyclopropylsulfonyl)-5-methylquinazoline-2-carboxamide] | 398 | <4
Cc1cccc2ncnc(N3CCCCC3c3cc4nc(N5CCC5)cc(N5CCNCC5)n4n3)c12 (stereo not drawn) [P53, 4-(2-(5-(azetidin-1-yl)-7-(piperazin-1-yl)pyrazolo[1,5-a]pyrimidin-2-yl)piperidin-1-yl)-5-methylquinazoline] | 50.1 | 4.6
Cc1cc(C)c2c(N3CCCCC3c3cc4nc(N5CCC5)cc(N5CCOCC5)n4n3)ncnc2c1 (stereo not drawn) [P59, 4-(5-(azetidin-1-yl)-2-(1-(5,7-dimethylquinazolin-4-yl)piperidin-2-yl)-pyrazolo[1,5-a]pyrimidin-7-yl)morpholine] | 398 | 4.3
Cc1cn2nc([C@H]3CCCCN3c3ncnc4cccc(C)c34)cc2nc1N1CC(O)C1 [P24, (R)-1-(6-methyl-2-(1-(5-methylquinazolin-4-yl)piperidin-2-yl)pyrazolo[1,5-a]-pyrimidin-5-yl)azetidin-3-ol] | > 25100 | <4.6
Cc1ccc2ncnc(N3CCCC[C@@H]3c3cc4nc(N5CC[C@H](N)C5)ccn4n3)c2c1 [P50, (S)-1-(2-((R)-1-(6-methylquinazolin-4-yl)piperidin-2-yl)pyrazolo-[1,5-a]pyrimidin-5-yl)pyrrolidin-3-amine] | 631 | 4.3
Cc1cn2nc(C3CCCCN3c3ncnc4cccc(C)c34)cc2nc1N1CC(N)C1 (stereo not drawn) [P26, 1-(6-methyl-2-(1-(5-methylquinazolin-4-yl)piperidin-2-yl)pyrazolo-[1,5-a]pyrimidin-5-yl)azetidin-3-amine] | 25.1 | 4.3
Cc1ccc2nc(C)nc(N3CCCCC3c3cc4nc(N5CC(O)C5)c(C)cn4n3)c2c1 (stereo not drawn) [P42, 1-(2-(1-(2,6-dimethylquinazolin-4-yl)piperidin-2-yl)-6-methyl-pyrazolo[1,5-a]pyrimidin-5-yl)azetidin-3-ol] | 2510 | <4.6
Cc1cccc2ncnc(N3CCCC[C@H]3c3cc4nc(N5CCC5)cc(N5CCOCC5)n4n3)c12 [P19, (S)-4-(5-(azetidin-1-yl)-2-(1-(5-methylquinazolin-4-yl)piperidin-2-yl)pyrazolo[1,5-a]pyrimidin-7-yl)morpholine] | 10 | <4.3
Cc1cn2nc(C3CCCCN3c3ncnc4cccc(C)c34)cc2nc1N1CC[C@@H](N)C1 (stereo in doubt) [P48, (3 S)-1-(6-methyl-2-(1-(5-methylquinazolin-4-yl)piperidin-2-yl)-pyrazolo[1,5-a]pyrimidin-5-yl)pyrrolidin-3-amine] | 12.6 | 4.5
Cc1ccc2ncnc(N3CCCCC3c3cc4nc(N5CCC5)cc(N5CCOCC5)n4n3)c2c1C (stereo not drawn) [P64, 4-(5-(azetidin-1-yl)-2-(1-(5,6-dimethylquinazolin-4-yl)piperidin-2-yl)-pyrazolo[1,5-a]pyrimidin-7-yl)morpholine] | 15.8 | <4.6
Cc1ccc2ncnc(N3CCCCC3c3cc4nc(N5CCC5)cc(N5CCOCC5)n4n3)c2c1 (stereo not drawn) [P4, 4-(5-(azetidin-1-yl)-2-(1-(6-methylquinazolin-4-yl)piperidin-2-yl)-pyrazolo[1,5-a]pyrimidin-7-yl)morpholine] | 158 | <4
Cc1cn2nc([C@@H]3CCCCN3c3ncnc4cccc(C)c34)cc2nc1N1CC(O)C1 [P25, (S)-1-(6-methyl-2-(1-(5-methylquinazolin-4-yl)-piperidin-2-yl)pyrazolo[1,5-a]pyrimidin-5-yl)azetidin-3-ol] | 31.6 | <4.6
CCc1ccc2ncnc(N3CCCCC3c3cc4nc(N5CCC5)cc(N5CCOCC5)n4n3)c2c1C (stereo not drawn) [P63, 4-(5-(azetidin-1-yl)-2-(1-(6-ethyl-5-methylquinazolin-4-yl)piperidin-2-yl)pyrazolo[1,5-a]pyrimidin-7-yl)morpholine] | 398 | 4.4
FC(F)(F)c1cccc2ncnc(N3CCCCC3c3cc4nc(N5CCC5)cc(N5CCOCC5)n4n3)c12 (stereo not drawn) [P62, 4-(5-(azetidin-1-yl)-2-(1-(5-(trifluoromethyl)quinazolin-4-yl)piperidin-2-yl)pyrazolo[1,5-a]pyrimidin-7-yl)morpholine] | 100 | 4.3
Cc1cccc2ncnc(N3CCCCC3c3cc4nc(N5CCC5)cc(N5CCN(C(=O)NC(C)C)CC5)n4n3)c12 (stereo not drawn) [P54, 4-(5-(azetidin-1-yl)-2-(1-(5-methylquinazolin-4-yl)piperidin-2-yl)-pyrazolo[1,5-a]pyrimidin-7-yl)-N-isopropylpiperazine-1-carboxamide] | 25.1 | 4.5
Cc1ccc2ncnc(N3CCCCC3c3cc4nc(N5CCC(N)C5)ccn4n3)c2c1 (stereo in doubt) [P49, (3S)-1-(2-(1-(6-methylquinazolin-4-yl)piperidin-2-yl)pyrazolo[1,5-a]pyrimidin-5-yl)pyrrolidin-3-amine] | 794 | 4.3
Clc1ccc2ncnc(N3CCCC[C@@H]3c3cc4nc(N5CCC5)cc(N5CCOCC5)n4n3)c2c1 [P3, (R)-4-(5-(azetidin-1-yl)-2-(1-(6-chloroquinazolin-4-yl)piperidin-2-yl)pyrazolo[1,5-a]pyrimidin-7-yl)morpholine] | 3980 | 4.6

From patent US9981976B2, “Piperidine substituted pyrazolo[1,5-A]pyrimidine derivatives with inhibitory activity on the replication of the respiratory syncytial virus (RSV)” (priority 2014, dated 2018)
